Consider 3 compounds from patent publication US8715155B2, “Embryo development and survival” (University of Tennessee Research Foundation, priority 2005, dated 2014).

Read-outs that look alike come from different tables or passages of the source.

The test system of experiment [1] is 16- to 32-cell pre-compacted (in vitro-produced) embryos. Description: Culture of pre-compacted (in vitro-produced) embryos with PGF2α or PGE2. The experiment is classed as cell-based, bovine. Particulars: vs control. The procedure: Embryos are produced by a modified protocol for in vitro production of embryos described by Edwards and Hansen, Biol. Reprod. 55:340-346 (1996). Pre-compacted 16- to 32-cell stage embryos are rapidly washed in KSOM media (Biggers, J. D. 1991. J. Reprod. Fertil. 91:543) supplemented with polyvinyl alcohol (PVA) 3 mg/ml (0.3%). The embryos are evaluated for quality (normal shape, defined blastomeres, extruded blastomeres, cytoplasmic fragmentation, even cytoplasm), are evenly sorted in four groups (formed by embryos of good quality), are transferred to experimental treatments in a 4-well plate as described below, and are returned to the incubator (5.5% CO2, 7% O2, and 87.5% N2 at 38.5° C.). Embryos remain in each treatment for 4 additional days. Embryo development is assessed using IETS (International Embryo Transfer Society) guidelines for classification of bovine embryos.
Dilutions (i.e., treatments) of PGF2α (Cayman Chemical Co.; Ann Arbor, Mich.) are prepared to obtain 0, 1, 10 and 100 ng/mL. Treatments are placed in each well of a 4-well plate (500 μL/well) and equilibrated in the incubator (5.5% CO2, 7% O2, and 87.5% N2 at 38.5° C.) for at least 5 h prior to embryo placement. […]
Data are analyzed to test for blastocyst development and hatching rates using an incomplete block design and a randomized block design, respectively. […]

Another experiment concerns recipient cattle. Particulars: intramuscular injection immediately prior to or after non-surgical embryo transfer; vs controls; cited from earlier work.
For experiment [2], the system named is compacted (in vivo-derived) morula stage embryos. Briefly: Culture of compacted (in vivo-derived) morula-stage embryos with PGF2α. The class given is cell-based, bovine. Particulars: 0.1, 1 or 10 ng/mL PGF2α for 24 h. On the procedure:
In vivo-derived glycerol-frozen morula-stage bovine embryos are thawed utilizing a three-step glycerol removal procedure. After washing, embryos are allowed to regain normal morphology for 30 min in Vigro holding medium and are sorted by stage of development and quality according with the IETS guidelines for classification of bovine embryos. For this study, a total of 4 replicates are used.
Schrick, et al, Biol. Reprod. 49:617-621 (1993) reported 0.64 ng/mL of PGF2α in flush media from short cycle cows and a negative association of PGF2α concentration with embryo quality. Based on these findings, concentrations of 0 (control, KSOM-PVA), 0.1, 1, and 10 ng/mL of PGF2α in culture medium are selected as treatments. Each treatment is placed in a different well of a 4-well plate (500 μL/well) and then maintained in the incubator (5.5% CO2, 7% O2, and 87.5% N2 at 38.5° C.) for at least 5 h before placement of embryos to allow equilibration of medium. […]
Morula embryos (Stage 4) of quality grade 1, 2 or 3 are rapidly washed four times in KSOM-PVA and randomly assigned to one of four treatments: 1) control (n=110); 2) 0.1 ng/mL PGF2α (n=108); 3) 1 ng/mL PGF2α (n=109), 4) 10 ng/mL PGF2α (n=109) and are placed in the incubator (5.5% CO2, 7% O2, and 87.5% N2 at 38.5° C.). […] Data are analyzed as in Example 1.a.

The subject of experiment [3] is Pre-compacted 16- to 32-cell stage bovine embryos. Particulars: 1 ng/ml PGF on days 4 to 6 (48 h culture).
Procedure: Pre-compacted 16- to 32-cell stage bovine embryos (day 4 post fertilization) are washed in KSOM-PVA and divided into four groups, each of which is cultured for 48 hours in KSOM-PVA containing one of the following: (1) 1000 nM AL-8810, n=95 (AL-8810 group); (2) 1 ng/ml PGF, n=91 (PGF group); (3) 1000 nM AL-8810+1 ng/ml PGF, n=90 (AL-8810+PGF group); or (4) KSOM-PVA without AL-8810 or PGF, n=84 (Control group).
Following the 48 hour culture, embryos from each group are placed in HEPES-TALP and embryonic development is assessed by a technician who is uninformed of the treatments of the embryos in each group. Embryos from each treatment group are washed in KSOM-PVA and transferred to a 4-well plate with KSOM-PVA for further culture until day 8 post fertilization, when embryonic development is again assessed.
Experiment [4] has as its system progestin-supplemented cows. Particulars: cited from earlier work.

For the compound `CCCCC[C@H](O)/C=C/[C@H]1[C@H](O)CC(=O)[C@@H]1C/C=C\CCCC(=O)O` [PGE2, Prostaglandin E2], the blastocyst development entry in experiment [1] (5 ng/mL PGE2 in medium, P>0.10) is “does not differ between control and PGE2 treatments”.

Consider `Cc1c(Nc2ncccc2C(=O)O)cccc1C(F)(F)F` [flunixin meglamine], for which the pregnancy rates result in the experiment on recipient cattle is recorded as “Pregnancy rates were significantly higher”.

In the case of prostaglandin F2α [PGF2α], in experiment [2] (then 48 h without, P>0.10), the “development at least two stages beyond morula (IETS guidelines)” value was “does not differ between treatments”. Besides, in experiment [2] (vs control, P=0.05), the hatching rates entry is given as “decreased hatching rates when compared to control”. Moreover, the “percentage of embryos reaching blastocyst stage on day 8” value in experiment [3] is “decreases the percentage of embryos reaching blastocyst stage on day 8”. Moreover, the pregnancy rates result in experiment [4] (PGF2α administered between days 5 and 8 of pregnancy, vs saline controls) is on record as “decreased pregnancy rates compared to saline controls”; in experiment [4] (PGF2α administered on days 10 to 13 or days 15 to 18), “no effect on pregnancy rates”. Moreover, the blastocyst development entry in experiment [1] (1, 10 or 100 ng/mL PGF2α in medium, 4 days culture, P=0.002) is recorded as “reduced blastocyst development when compared to control”.
